From the supplement of paper PMC10627819

Experiments:
B. subtilis 168 = assay: Bliss interaction score (quartile over a dose matrix) (fitness difference); higher = more antagonism (negative = synergy)
Outline: (§1)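 Fitness was derived from optical density at entry into stationary phase, divided by the robust mean of the no-drug wells on the same plate. That reading was taken as OD595, and the ratio was capped at 1. Single-drug fitness was inferred from the combination data. The Bliss score, observed fitness minus the expected product of single-drug fitness, was summarised as quartiles over technical, biological and donor/recipient replicates.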

S. aureus Newman [1] = assay: as above
Outline: as §1

S. aureus DSM 20231 [2] = assay: as above
Outline: as §1

S. pneumoniae D39V [3] = assay: as above
Outline: as §1

S. aureus Newman [4] = assay: fitness (endpoint OD595 vs no drug) (fraction); higher = more growth
Outline: (§2)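 Plates with 384 wells were inoculated at OD595 0.01 using 30 µl of TSB, LB Lennox or CY, or 55 µl for S. pneumoniae. Incubation was at 37 °C, with OD595 measured every 30 min for 14 h. Fitness is the stationary-phase transition optical density over the robust mean of no-drug control wells, after first-reading background subtraction; it is capped at 1.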

S. aureus DSM 20231 [5] = assay: as above
Outline: as §2

S. pneumoniae D39V [6] = assay: as above
Outline: as §2
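Throughout, for Bliss interaction score (quartile over a dose matrix): first quartile when negative (synergy) and third quartile when positive (antagonism).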

Cn1c2cccc(=O)c-2nc2ccccc21 [Pyocyanin] + CN[C@H](CC(C)C)C(=O)N[C@H]1C(=O)N[C@@H](CC(N)=O)C(=O)N[C@H]2C(=O)N[C@H]3C(=O)N[C@H](C(=O)N[C@H](C(=O)O)c4cc(O)cc(O)c4-c4cc3ccc4O)[C@H](O)c3ccc(c(Cl)c3)Oc3cc2cc(c3O[C@@H]2O[C@H](CO)[C@@H](O)[C@H](O)[C@H]2O[C@H]2C[C@](C)(N)[C@H](O)[C@H](C)O2)Oc2ccc(cc2Cl)[C@H]1O [Vancomycin]
Details	Bliss interaction score
B. subtilis 168	-0.0201
S. aureus DSM 20231 [2]	0.0758
S. aureus Newman [1]	0.0784
S. pneumoniae D39V [3]	0.0635

Details	fitness
S. aureus DSM 20231 [5], first compound 1.25 µg/mL, partner 0.1875 µg/mL	0.796
S. aureus DSM 20231 [5], first compound 1.25 µg/mL, partner 0.375 µg/mL	0.856
S. aureus DSM 20231 [5], first compound 1.25 µg/mL, partner 0.75 µg/mL	0.921
S. aureus DSM 20231 [5], first compound 2.5 µg/mL, partner 0.1875 µg/mL	0.852
S. aureus DSM 20231 [5], first compound 2.5 µg/mL, partner 0.375 µg/mL	0.861
S. aureus DSM 20231 [5], first compound 2.5 µg/mL, partner 0.75 µg/mL	0.934
S. aureus DSM 20231 [5], first compound 5 µg/mL, partner 0.1875 µg/mL	0.659
S. aureus DSM 20231 [5], first compound 5 µg/mL, partner 0.375 µg/mL	0.745
S. aureus DSM 20231 [5], first compound 5 µg/mL, partner 0.75 µg/mL	0.726
S. aureus Newman [4], first compound 1.25 µg/mL, partner 0.1875 µg/mL	0.907
S. aureus Newman [4], first compound 1.25 µg/mL, partner 0.375 µg/mL	0.899
S. aureus Newman [4], first compound 1.25 µg/mL, partner 0.75 µg/mL	0.84
S. aureus Newman [4], first compound 2.5 µg/mL, partner 0.1875 µg/mL	0.855
S. aureus Newman [4], first compound 2.5 µg/mL, partner 0.375 µg/mL	0.768
S. aureus Newman [4], first compound 5 µg/mL, partner 0.75 µg/mL	0.393
S. pneumoniae D39V [6], first compound 0.325 µg/mL, partner 0.03125 µg/mL	≥ 1
S. pneumoniae D39V [6], first compound 0.325 µg/mL, partner 0.0625 µg/mL	0.994
S. pneumoniae D39V [6], first compound 0.325 µg/mL, partner 0.125 µg/mL	0.921
S. pneumoniae D39V [6], first compound 0.65 µg/mL, partner 0.03125 µg/mL	0.962
S. pneumoniae D39V [6], first compound 0.65 µg/mL, partner 0.0625 µg/mL	0.952
S. pneumoniae D39V [6], first compound 1.3 µg/mL, partner 0.03125 µg/mL	0.686
S. pneumoniae D39V [6], first compound 1.3 µg/mL, partner 0.0625 µg/mL	0.651

fitness, S. pneumoniae D39V [6], one replicate
Details	first compound 0.325 µg/mL	first compound 0.65 µg/mL
partner 0.25 µg/mL	0.584	0.724
partner 0.5 µg/mL	0.314	0.391

Cn1c2cccc(=O)c-2nc2ccccc21 [Pyocyanin] + Cn1nnc(-c2ccc(-c3ccc(N4C[C@H](CO)OC4=O)cc3F)cn2)n1 [Tedizolid]
Details	Bliss interaction score
B. subtilis 168	0.0439
S. aureus DSM 20231 [2]	0.0928
S. aureus Newman [1]	-0.065
S. pneumoniae D39V [3]	-0.0686

fitness
Details	partner 0.03125 µg/mL	partner 0.0625 µg/mL	partner 0.125 µg/mL	partner 0.25 µg/mL
S. aureus DSM 20231 [5], first compound 1.25 µg/mL	–	0.813	0.739	0.218
S. aureus DSM 20231 [5], first compound 2.5 µg/mL	–	0.8	0.701	0.242
S. aureus DSM 20231 [5], first compound 5 µg/mL	–	0.635	0.565	0.169
S. aureus Newman [4], first compound 1.25 µg/mL	–	0.853	0.789	–
S. aureus Newman [4], first compound 2.5 µg/mL	–	0.764	0.651	–
S. aureus Newman [4], first compound 5 µg/mL	–	–	0.248	0.161
S. pneumoniae D39V [6], first compound 0.325 µg/mL	0.976	0.978	0.798	–
S. pneumoniae D39V [6], first compound 0.65 µg/mL	0.97	0.952	0.844	–
S. pneumoniae D39V [6], first compound 1.3 µg/mL	0.753	0.731	0.652	–

fitness, S. pneumoniae D39V [6], one replicate
Details	first compound 0.325 µg/mL	first compound 0.65 µg/mL
partner 0.25 µg/mL	0.736	0.821
partner 0.5 µg/mL	0.344	0.545

CN(N=O)C(=O)N[C@@H](C=O)[C@@H](O)[C@H](O)[C@H](O)CO [Streptozotocin] + CN[C@H](CC(C)C)C(=O)N[C@H]1C(=O)N[C@@H](CC(N)=O)C(=O)N[C@H]2C(=O)N[C@H]3C(=O)N[C@H](C(=O)N[C@H](C(=O)O)c4cc(O)cc(O)c4-c4cc3ccc4O)[C@H](O)c3ccc(c(Cl)c3)Oc3cc2cc(c3O[C@@H]2O[C@H](CO)[C@@H](O)[C@H](O)[C@H]2O[C@H]2C[C@](C)(N)[C@H](O)[C@H](C)O2)Oc2ccc(cc2Cl)[C@H]1O [Vancomycin]
Details	Bliss interaction score
B. subtilis 168	-0.0175
S. aureus DSM 20231 [2]	0.0534
S. aureus Newman [1]	-0.0371
S. pneumoniae D39V [3]	0.0398

fitness
Details	first compound 0.15 µg/mL	first compound 0.3 µg/mL	first compound 0.6 µg/mL	first compound 1.2 µg/mL	first compound 2.4 µg/mL	first compound 4.8 µg/mL
S. aureus DSM 20231 [5], partner 0.1875 µg/mL	0.861	0.757	0.716	–	–	–
S. aureus DSM 20231 [5], partner 0.375 µg/mL	0.912	0.845	0.767	–	–	–
S. aureus DSM 20231 [5], partner 0.75 µg/mL	0.946	0.895	0.839	–	–	–
S. aureus Newman [4], partner 0.1875 µg/mL	0.861	0.792	0.585	–	–	–
S. aureus Newman [4], partner 0.375 µg/mL	0.82	0.758	0.515	–	–	–
S. aureus Newman [4], partner 0.75 µg/mL	0.885	0.763	0.539	–	–	–
S. pneumoniae D39V [6], partner 0.03125 µg/mL	–	–	–	0.998	0.99	0.999
S. pneumoniae D39V [6], partner 0.0625 µg/mL	–	–	–	0.911	0.881	0.932
S. pneumoniae D39V [6], partner 0.125 µg/mL	–	–	–	0.746	0.757	0.794

fitness, S. pneumoniae D39V [6], one replicate
Details	first compound 1.2 µg/mL	first compound 2.4 µg/mL	first compound 4.8 µg/mL
partner 0.25 µg/mL	0.655	0.639	0.536
partner 0.5 µg/mL	0.327	0.333	0.424

CN(N=O)C(=O)N[C@@H](C=O)[C@@H](O)[C@H](O)[C@H](O)CO [Streptozotocin] + Cn1nnc(-c2ccc(-c3ccc(N4C[C@H](CO)OC4=O)cc3F)cn2)n1 [Tedizolid]
Details	Bliss interaction score
B. subtilis 168	-0.0702
S. aureus DSM 20231 [2]	0.0552
S. aureus Newman [1]	-0.0487
S. pneumoniae D39V [3]	-0.075

fitness
Details	partner 0.03125 µg/mL	partner 0.0625 µg/mL	partner 0.125 µg/mL	partner 0.25 µg/mL
S. aureus DSM 20231 [5], first compound 0.15 µg/mL	–	0.799	0.553	0.207
S. aureus DSM 20231 [5], first compound 0.3 µg/mL	–	0.833	0.58	0.195
S. aureus DSM 20231 [5], first compound 0.6 µg/mL	–	0.701	0.5	0.152
S. aureus Newman [4], first compound 0.15 µg/mL	–	0.822	0.737	0.304
S. aureus Newman [4], first compound 0.3 µg/mL	–	0.638	–	0.297
S. aureus Newman [4], first compound 0.6 µg/mL	–	0.471	0.409	0.151
S. pneumoniae D39V [6], first compound 1.2 µg/mL	0.921	0.923	0.809	–
S. pneumoniae D39V [6], first compound 2.4 µg/mL	0.921	0.908	0.828	–
S. pneumoniae D39V [6], first compound 4.8 µg/mL	0.932	0.868	0.87	–

fitness, S. pneumoniae D39V [6], one replicate
Details	first compound 1.2 µg/mL	first compound 2.4 µg/mL	first compound 4.8 µg/mL
partner 0.25 µg/mL	0.598	0.653	0.791
partner 0.5 µg/mL	0.426	0.464	0.547

Cc1cc(NS(=O)(=O)c2ccc(N)cc2)no1 [Sulfamethoxazol] + CN[C@H](CC(C)C)C(=O)N[C@H]1C(=O)N[C@@H](CC(N)=O)C(=O)N[C@H]2C(=O)N[C@H]3C(=O)N[C@H](C(=O)N[C@H](C(=O)O)c4cc(O)cc(O)c4-c4cc3ccc4O)[C@H](O)c3ccc(c(Cl)c3)Oc3cc2cc(c3O[C@@H]2O[C@H](CO)[C@@H](O)[C@H](O)[C@H]2O[C@H]2C[C@](C)(N)[C@H](O)[C@H](C)O2)Oc2ccc(cc2Cl)[C@H]1O [Vancomycin]
Details	Bliss interaction score
B. subtilis 168	-0.0423
S. aureus DSM 20231 [2]	0.0457
S. aureus Newman [1]	0.0422
S. pneumoniae D39V [3]	0.0444

fitness
Details	first compound 1 µg/mL	first compound 2 µg/mL	first compound 4 µg/mL
S. aureus DSM 20231 [5], partner 0.1875 µg/mL	0.929	0.932	0.94
S. aureus DSM 20231 [5], partner 0.375 µg/mL	≥ 1	≥ 1	0.962
S. aureus DSM 20231 [5], partner 0.75 µg/mL	1	0.983	0.998
S. aureus Newman [4], partner 0.1875 µg/mL	0.991	0.988	≥ 1
S. aureus Newman [4], partner 0.375 µg/mL	0.993	0.968	≥ 1
S. aureus Newman [4], partner 0.75 µg/mL	0.977	0.953	≥ 1
S. pneumoniae D39V [6], partner 0.03125 µg/mL	0.964	0.961	0.97
S. pneumoniae D39V [6], partner 0.0625 µg/mL	0.909	0.899	0.961
S. pneumoniae D39V [6], partner 0.125 µg/mL	0.925	0.94	0.952

one replicate
Details	fitness
S. aureus Newman [4], first compound 8 µg/mL, partner 0.1875 µg/mL	0.87
S. aureus Newman [4], first compound 8 µg/mL, partner 0.375 µg/mL	0.896
S. aureus Newman [4], first compound 8 µg/mL, partner 0.75 µg/mL	0.915
S. pneumoniae D39V [6], first compound 1 µg/mL, partner 0.25 µg/mL	0.262
S. pneumoniae D39V [6], first compound 1 µg/mL, partner 0.5 µg/mL	0.0171
S. pneumoniae D39V [6], first compound 2 µg/mL, partner 0.25 µg/mL	0.258
S. pneumoniae D39V [6], first compound 2 µg/mL, partner 0.5 µg/mL	0.0591
S. pneumoniae D39V [6], first compound 4 µg/mL, partner 0.25 µg/mL	0.772
S. pneumoniae D39V [6], first compound 4 µg/mL, partner 0.5 µg/mL	0.496

Cc1cc(NS(=O)(=O)c2ccc(N)cc2)no1 [Sulfamethoxazol] + Cn1nnc(-c2ccc(-c3ccc(N4C[C@H](CO)OC4=O)cc3F)cn2)n1 [Tedizolid]
Details	Bliss interaction score
B. subtilis 168	-0.056
S. aureus DSM 20231 [2]	0.0501
S. aureus Newman [1]	0.0706
S. pneumoniae D39V [3]	-0.103

fitness
Details	first compound 1 µg/mL	first compound 2 µg/mL	first compound 4 µg/mL
S. aureus DSM 20231 [5], partner 0.0625 µg/mL	0.919	0.922	0.883
S. aureus DSM 20231 [5], partner 0.125 µg/mL	0.586	0.626	0.565
S. aureus DSM 20231 [5], partner 0.25 µg/mL	0.213	0.232	0.223
S. aureus Newman [4], partner 0.0625 µg/mL	0.975	0.958	0.965
S. aureus Newman [4], partner 0.125 µg/mL	0.901	0.94	0.934
S. aureus Newman [4], partner 0.25 µg/mL	0.576	–	–
S. pneumoniae D39V [6], partner 0.03125 µg/mL	0.942	0.945	0.964
S. pneumoniae D39V [6], partner 0.0625 µg/mL	0.933	0.944	0.914
S. pneumoniae D39V [6], partner 0.125 µg/mL	0.754	0.781	0.777

fitness, one replicate
Details	partner 0.0625 µg/mL	partner 0.125 µg/mL	partner 0.25 µg/mL	partner 0.5 µg/mL
S. aureus Newman [4], first compound 8 µg/mL	0.867	0.873	0.687	–
S. pneumoniae D39V [6], first compound 1 µg/mL	–	–	0.48	0.549
S. pneumoniae D39V [6], first compound 2 µg/mL	–	–	0.529	0.548
S. pneumoniae D39V [6], first compound 4 µg/mL	–	–	0.558	0.505
